Data on five compounds can be found in patent US20160303184A1, “VANCOMYCIN-SUGAR CONJUGATES AND USES THEREOF” (JAWAHARLAL NEHRU CENTRE FOR ADVANCED SCIENTIFIC RESEARCH …, priority 2013, published 2016).

What all share (assay type): cell-based
Assay [1] concerns Methicillin-sensitive S. aureus (MTCC 737). The assay can be described thus: MIC, micro-dilution broth, MSSA. The settings on record: MTCC 737, read-out: MIC MSSA. Here is the method:
(§1) All test compounds were assayed in a micro-dilution broth format. Stock solutions were made by serially diluting the compounds using autoclaved millipore water or broth media. The antibacterial activity of the compounds was determined against methicillin-sensitive S. aureus (MSSA), methicillin-resistant S. aureus (MRSA), vancomycin-intermediate-resistant S. aureus (VISA), vancomycin-sensitive E. faecium (VSE) and vancomycin-resistant E. faecium (VRE). Bacteria, to be tested, were grown for about 10 h in the suitable media, MSSA, MRSA and VISA were grown in yeast-dextrose broth (about 1 g of beef extract, about 2 g of yeast extract, about 5 g of peptone and about 5 g of NaCl in about 1000 mL of sterile distilled water (pH-7)). For solid media, about 5% agar was used along with above mentioned composition. VSE and VRE were cultured in brain heart infusion broth (Himedia). The bacterial samples were freeze dried and stored at −80° C. About 5 μL of these stocks were added to about 3 mL of the nutrient broth and the culture was grown for about 6 h at about 37° C. prior to the experiments. This 6 h grown culture gives about 10^9 cfu/mL and this was determined by spread plating method. The 6 h grown culture was diluted to give effective cell concentration of about 10^5 cfu/mL which was then used for determining MIC. Compounds were serially diluted, in sterile water (2 fold dilution is employed) in a way that the working concentration was about 10 μM for MSSA, MRSA, and VSE while for VRE and VISA it was about 100 μM. About 50 μL of these serial dilutions were added to the wells of 96 well plate followed by the addition of about 150 μL of bacterial solution. The plates were then incubated at about 37° C., 150 rpm in the incubator and O.D at 600 nm was recorded at an interval of about 10 h and 24 h using TECAN (Infinite series, M200 pro) Plate Reader. Each concentration had triplicate values and the whole experiment was done at least twice and the MIC value was determined by taking the average of triplicate. O. D. values for each concentration and plotting it against concentration. The data was then subjected to sigmoidal fitting. From the curve the MIC value was determined, as the point in the curve where the O. D. was similar to that of control having no bacteria.

Assay [2] deals with Methicillin-resistant S. aureus (ATCC 33591). Briefly: MIC, micro-dilution broth, MRSA. The settings on record: ATCC 33591, read-out: MIC MRSA. Here is the method:
as §1

Assay [3] concerns Vancomycin intermediate resistant S. aureus. The assay can be described thus: MIC, micro-dilution broth, VISA. The conditions noted are these: read-out: MIC VISA. Here is the method:
as §1

Assay [4] relates to Vancomycin-sensitive E. faecium (ATCC 19634). The assay can be described thus: MIC, micro-dilution broth, VSE. The settings on record: read-out: MIC VSE. The procedure:
as §1

For assay [5], the system named is Vancomycin-resistant E. faecium (VanA, ATCC 51559). Briefly: MIC, micro-dilution broth, VRE (VanA). The conditions noted are these: E. faecium ATCC 51559, read-out: MIC VRE (VanA). The procedure: as §1
For assay [6], the system named is Vancomycin-resistant E. faecalis (VanA, ATCC 51575). The assay can be described thus: MIC, micro-dilution broth, VRE (VanB). The settings on record: Enterococcus faecalis; E. faecalis ATCC 51575; read-out: MIC VRE (VanB).
The test system of assay [7] is methicillin-resistant S. epidermidis clinical isolate. The assay can be described thus: MIC, clinical isolate of methicillin-resistant S. epidermidis. The conditions noted are these: Staphylococcus epidermidis, read-out: MIC S. epidermidis.
Assay [8] deals with methicillin-resistant S. haemolyticus clinical isolate. The assay can be described thus: MIC, clinical isolate of methicillin-resistant S. haemolyticus. The conditions noted are these: Staphylococcus haemolyticus; clinical isolate, methicillin-resistant; read-out: MIC S. haemolyticus.
Assay [9] concerns methicillin-resistant S. aureus clinical isolate. The assay can be described thus: MIC, clinical isolate of methicillin-resistant S. aureus. The settings on record: Staphylococcus aureus, read-out: MIC S. aureus. The procedure:
as §1

The mark [10] stands for this setting: Enterococcus faecium, ATCC19634, ATCC 19634.

Values after ≈ are worked out from the molar mass of the structure shown. Like-named read-outs stand apart in the source and are kept apart here. Bounds are passed on as bounds.

As for `CN[C@H](CC(C)C)C(=O)N[C@H]1C(=O)N[C@@H](CC(N)=O)C(=O)N[C@H]2C(=O)N[C@H]3C(=O)N[C@H](C(=O)N[C@H](C(=O)NCCOC4OC(CO)C(O)C(O)C4O)c4cc(O)cc(O)c4-c4cc3ccc4O)[C@H](O)c3ccc(c(Cl)c3)Oc3cc2cc(c3O[C@H]2OC(CO)[C@H](O)C(O)C2O[C@H]2C[C@@](C)(N)[C@H](O)C(C)O2)Oc2ccc(cc2Cl)[C@H]1O` (stereo partly shown) [Compound 2], the MIC in assay [1] is on record as 1.2 µM (≈ 1.99 µg/mL); in assay [2], 1.4 µM (≈ 2.32 µg/mL); in assay [3] it was 2.02 µM (≈ 3.34 µg/mL); in assay [4] (ATCC 19634), 1.2 µM (≈ 1.99 µg/mL); in [5], above 100 µM.

As to `CN[C@H](CC(C)C)C(=O)N[C@H]1C(=O)N[C@@H](CC(N)=O)C(=O)N[C@H]2C(=O)N[C@H]3C(=O)N[C@H](C(=O)N[C@H](C(=O)NCCCNC(=O)[C@H](O)[C@@H](O)[C@H](OC4OC(CO)C(O)C(O)C4O)[C@H](O)CO)c4cc(O)cc(O)c4-c4cc3ccc4O)[C@H](O)c3ccc(c(Cl)c3)Oc3cc2cc(c3O[C@H]2OC(CO)[C@H](O)C(O)C2O[C@H]2C[C@@](C)(N)[C@H](O)C(C)O2)Oc2ccc(cc2Cl)[C@H]1O` (stereo partly shown) [Compound 4], the MIC in assay [1] (Staphylococcus aureus) stood at 0.3 µM (≈ 0.554 µg/mL); in [2] (Staphylococcus aureus), 0.38 µM (≈ 0.701 µg/mL); in assay [3] (Staphylococcus aureus, VISA), 0.3 µM (≈ 0.554 µg/mL); in [4] (setting [10]), 0.4 µM (≈ 0.738 µg/mL); in assay [5] (Enterococcus faecium), 36 µM (≈ 66.4 µg/mL).

With `CCCCCCCCN[C@]1(C)C[C@H](OC2C(O)[C@@H](O)C(CO)O[C@@H]2Oc2c3cc4cc2Oc2ccc(cc2Cl)[C@@H](O)[C@@H](NC(=O)[C@@H](CC(C)C)NC)C(=O)N[C@@H](CC(N)=O)C(=O)N[C@H]4C(=O)N[C@H]2C(=O)N[C@H](C(=O)N[C@H](C(=O)NCCCNC(=O)[C@H](O)[C@@H](O)[C@H](OC4OC(CO)C(O)C(O)C4O)[C@H](O)CO)c4cc(O)cc(O)c4-c4cc2ccc4O)[C@H](O)c2ccc(c(Cl)c2)O3)OC(C)[C@@H]1O` (stereo partly shown) [Compound 17], the minimal inhibitory concentration (MIC) in [1] (Staphylococcus aureus) came out at 0.2 µM (≈ 0.392 µg/mL); in [2] (Staphylococcus aureus), 0.3 µM (≈ 0.587 µg/mL); in assay [3] (Staphylococcus aureus, VISA), 0.31 µM (≈ 0.607 µg/mL); in assay [4] (setting [10]), 0.2 µM (≈ 0.392 µg/mL); in assay [5] (Enterococcus faecium) it was 2 µM (≈ 3.92 µg/mL); in assay [6], 6.2 µM (≈ 12.1 µg/mL). Further, the MIC amounted to 0.3 µM (≈ 0.587 µg/mL) in assay [7], 0.4 µM (≈ 0.783 µg/mL) in assay [8] and 0.2 µM (≈ 0.392 µg/mL) in assay [9].

Regarding `CCCCCCCCN[C@]1(C)C[C@H](OC2C(O)[C@@H](O)C(CO)O[C@@H]2Oc2c3cc4cc2Oc2ccc(cc2Cl)[C@@H](O)[C@@H](NC(=O)[C@@H](CC(C)C)NC)C(=O)N[C@@H](CC(N)=O)C(=O)N[C@H]4C(=O)N[C@H]2C(=O)N[C@H](C(=O)N[C@H](C(=O)O)c4cc(O)cc(O)c4-c4cc2ccc4O)[C@H](O)c2ccc(c(Cl)c2)O3)OC(C)[C@@H]1O` (stereo partly shown) [Compound 15], the MIC in [1] (Staphylococcus aureus) came out at 0.3 µM (≈ 0.468 µg/mL); in [2] (Staphylococcus aureus) it was 0.3 µM (≈ 0.468 µg/mL); in assay [3] (Staphylococcus aureus, VISA), 0.4 µM (≈ 0.625 µg/mL); in assay [4] (setting [10]) it was 0.4 µM (≈ 0.625 µg/mL); in assay [5] (Enterococcus faecium) it was 25 µM (≈ 39 µg/mL); in [6], 12.5 µM (≈ 19.5 µg/mL).

Take `CCCCCCCCCCCCN[C@]1(C)C[C@H](OC2C(O)[C@@H](O)C(CO)O[C@@H]2Oc2c3cc4cc2Oc2ccc(cc2Cl)[C@@H](O)[C@@H](NC(=O)[C@@H](CC(C)C)NC)C(=O)N[C@@H](CC(N)=O)C(=O)N[C@H]4C(=O)N[C@H]2C(=O)N[C@H](C(=O)N[C@H](C(=O)O)c4cc(O)cc(O)c4-c4cc2ccc4O)[C@H](O)c2ccc(c(Cl)c2)O3)OC(C)[C@@H]1O` (stereo partly shown) [Compound 16]: the MIC was determined as 0.3 µM (≈ 0.485 µg/mL) in assay [1] (Staphylococcus aureus); 0.3 µM (≈ 0.485 µg/mL) in assay [2] (Staphylococcus aureus); 0.3 µM (≈ 0.485 µg/mL) in [3] (Staphylococcus aureus, VISA); 0.2 µM (≈ 0.324 µg/mL) in assay [4] (setting [10]); 7 µM (≈ 11.3 µg/mL) in assay [5] (Enterococcus faecium); 3.1 µM (≈ 5.01 µg/mL) in [6].
